According to patent US20240262848A1, “HETEROCYCLIC COMPOUNDS, COMPOSITIONS THEREOF, AND METHODS OF TREATMENT THEREWITH” (BeiGene, Ltd., priority 2022, published 2024):

How the values were obtained:
[1] = molecular target: GST-tagged GDP-loaded KRAS G12V (amino acids 1-169) (Homo sapiens, UniProt P01116, G12V); experiment: KRAS G12V probe displacement assay (TR-FRET); assay type: binding; conditions: Table 4; KRAS G12V 2 nM, biotinylated probe 2 2.5 nM
Procedure: Plates are incubated at 24 °C for 1 hr. […] After 1 hr incubation at 24° C.

[2] = system: pERK1/2(THR202/TYR204) level in SW620 cell line; experiment: KRAS G12V pERK assay in SW620 cells (HTRF); assay type: cell-based; conditions: Homo sapiens, SW-620, Table 4, 2 hrs compound treatment
Procedure: SW620 cell line was used in this study. Cells were maintained in RPMI 1640 supplemented with 10% fetal bovine serum (Thermo Fisher), 50 units/mL penicillin and streptomycin (Thermo Fisher) and kept at 37° C. in a humidified atmosphere of 5% CO2 in air. Cells were reinstated from frozen stocks that were laid down within 30 passages from the original cells purchased. 40000 cells per well were seeded into a 96-well plate and incubated overnight. Cells were treated with a 10-point dilution series. The final compound concentration is from 0 to 10 μM. After 2 hrs compound treatment, cells were lysed, and the pERK1/2(THR202/TYR204) level in the cell lysates was detected by HTRF kit (Cisbio). In brief, a total of 16 μL of cell lysate from each well of a 96-well plate was transferred to a 384-well white assay plate. Lysate from each well was incubated with 2 μL of Eu3+-cryptate (donor) labeled anti-phospho-ERK1/2 and 2 μL of D)2 (acceptor) labeled anti-phospho-ERK1/2 antibodies (Cisbio) overnight in dark at room temperature. When donor and acceptor are in close proximity, excitation of the donor with laser triggers a Fluorescence Resonance Energy Transfer (FRET) towards the acceptor, which in turn fluoresces at 655 nm wavelength. FRET signals were measured using a PHERAstar FSX reader (BMG Labtech). IC50 determination was performed by fitting the curve of percent inhibition versus the log of the inhibitor concentration using Dotmatics.

Sequence of GST-tagged GDP-loaded KRAS G12V (amino acids 1-169) (P01116 1-169 isoform P01116-2 G12V): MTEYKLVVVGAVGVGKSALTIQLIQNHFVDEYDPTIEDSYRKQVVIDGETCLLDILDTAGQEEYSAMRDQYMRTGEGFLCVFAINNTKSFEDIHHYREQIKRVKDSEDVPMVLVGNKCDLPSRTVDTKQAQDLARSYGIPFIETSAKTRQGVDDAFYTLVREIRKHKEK

Structure (SMILES)	IC50 [1]	IC50 [2]
Nc1cc(Cl)c(C(F)(F)F)c(-c2nc3c4c(nc(OC[C@@]56CCCN5C[C@H](F)C6)nc4c2F)N(CCO)CCO3)c1 [Example 7, 2-(5-(5-amino-3-chloro-2-(trifluoromethyl)phenyl)-4-fluoro-2-(((2R,7aS)-2-fluorotetrahydro-1H-pyrrolizin-7a(5H)-yl)methoxy)-8,9-dihydro-10H-7-oxa-1,3,6,10-tetraazacyclohepta[de]naphthalen-10-yl)ethan-1-ol]	2.5 nM	586 nM
C#Cc1c(F)ccc2cc(O)cc(-c3nc4c5c(nc(OC[C@@]67CCCN6C[C@H](F)C7)nc5c3F)N(C3CCC3)CCCO4)c12 [Example 13, 4-(11-cyclobutyl-4-fluoro-2-(((2R,7aS)-2-fluorotetrahydro-1H-pyrrolizin-7a(5H)-yl)methoxy)-8,9,10,11-tetrahydro-7-oxa-1,3,6,11-tetraazacycloocta[de]naphthalen-5-yl)-5-ethynyl-6-fluoronaphthalen-2-ol]	1.4 nM	141 nM
CC1CCOc2nc(-c3cc(N)cc(Cl)c3C(F)(F)F)c(F)c3nc(OC[C@@]45CCCN4C[C@H](F)C5)nc(c23)N1C (stereo partly drawn) [Example 6, 3-chloro-5-(4-fluoro-2-(((2R,7aS)-2-fluorotetrahydro-1H-pyrrolizin-7a(5H)-yl)methoxy)-10,11-dimethyl-8,9,10,11-tetrahydro-7-oxa-1,3,6,11-tetraazacycloocta[de]naphthalen-5-yl)-4-(trifluoromethyl)aniline]	1.8 nM	63 nM
CN1c2nc(OC[C@@]34CCCN3C[C@H](F)C4)nc3c(F)c(-c4cc(N)cc(Cl)c4C(F)(F)F)nc(c23)O[C@H]2CCOC[C@@H]21 [Example 50, 3-chloro-5-((7aS,11aS)-4-fluoro-2-(((2R,7aS)-2-fluorotetrahydro-1H-pyrrolizin-7a(5H)-yl)methoxy)-12-methyl-7a, 8,11a, 12-tetrahydro-9H, 11H-7,10-dioxa-1,3,6,12-tetraazapleiaden-5-yl)-4-(trifluoromethyl)aniline]	0.61 nM	28 nM
CN1c2nc(OC[C@@]34CCCN3C[C@H](F)C4)nc3c(F)c(-c4cc(N)cc(Cl)c4C(F)(F)F)nc(c23)OCC12CCC2 [Example 24, 3-chloro-5-(4′-fluoro-2′-(((2R,7aS)-2-fluorotetrahydro-1H-pyrrolizin-7a(5H)-yl)methoxy)-10′-methyl-8′H, 10′H-7′-oxa-1′,3′,6′,10′-tetraazaspiro[cyclobutane-1,9′-cyclohepta[de]naphthalen]-1′(10a′), 2′,3a′, 3 al′(6a′), 5′-pentaen-5′-yl)-4-(trifluoromethyl)aniline]	2.6 nM	95 nM
C[C@@H]1CCOc2c(Cl)c(-c3ccc(F)c4sc(N)c(C#N)c34)c(F)c3nc(OC[C@@]45CCCN4C[C@H](F)C5)nc(c23)N1C [Example 19, 2-amino-4-((R)-9-chloro-11-fluoro-2-(((2R,7aS)-2-fluorotetrahydro-1H-pyrrolizin-7a(5H)-yl)methoxy)-4,5-dimethyl-4,5,6,7-tetrahydro-[1,5]oxazocino[4,3,2-de]quinazolin-10-yl)-7-fluorobenzo[b]thiophene-3-carbonitrile]	0.65 nM	22 nM
CN1CCOC(C)(COc2nc3c4c(nc(-c5cc(N)cc(Cl)c5C(F)(F)F)c(F)c4n2)O[C@H]2COCC[C@@H]2N3C)C1 (stereo partly drawn) [Example 63, 3-chloro-5-((7aR,11aS)-2-((2,4-dimethylmorpholin-2-yl)methoxy)-4-fluoro-12-methyl-7a, 8,10,11,11a, 12-hexahydro-7,9-dioxa-1,3,6,12-tetraazapleiaden-5-yl)-4-(trifluoromethyl)aniline]	1.1 nM	25 nM
CN1c2nc(OC[C@@]34CCCN3C[C@H](F)C4)nc3c(F)c(-c4cc(N)cc(Cl)c4C(F)(F)F)nc(c23)OCC12CC2 [Example 29, 3-chloro-5-(4-fluoro-2-(((2R,7aS)-2-fluorotetrahydro-1H-pyrrolizin-7a(5H)-yl)methoxy)-10-methyl-8H, 10H-7-oxa-1,3,6,10-tetraazaspiro[cyclohepta[de]naphthalene-9,1′-cyclopropan]-1(10a), 2,3a, 3 al(6a), 5-pentaen-5-yl)-4-(trifluoromethyl)aniline]	0.95 nM	56 nM
CCN1c2nc(OCC34CCCN3CC(F)C4)nc3c(F)c(-c4cc(N)cc(Cl)c4C(F)(F)F)nc(c23)OCCC12CC2 [Example 55, 3-chloro-5-(11-ethyl-4-fluoro-2-(((2R,7aS)-2-fluorotetrahydro-1H-pyrrolizin-7a(5H)-yl)methoxy)-8,9-dihydro-11H-7-oxa-1,3,6,11-tetraazaspiro[cycloocta[de]naphthalene-10,1′-cyclopropan]-1(11a), 2,3a, 3 al(6a), 5-pentaen-5-yl)-4-(trifluoromethyl)aniline]	0.57 nM	41 nM
CN1c2nc(OC[C@@]34CCCN3C[C@H](F)C4)nc3c(F)c(-c4cc(N)cc(Cl)c4C(F)(F)F)nc(c23)OCC12COC2 [Example 23, 3-chloro-5-(4-fluoro-2-(((2R,7aS)-2-fluorotetrahydro-1H-pyrrolizin-7a(5H)-yl)methoxy)-10-methyl-8H, 10H-7-oxa-1,3,6,10-tetraazaspiro[cyclohepta[de]naphthalene-9,3′-oxetan]-1(10a), 2,3a, 3a^1(6a), 5-pentaen-5-yl)-4-(trifluoromethyl)aniline]	9.2 nM	338 nM
CC1COc2nc(-c3cc(N)cc(Cl)c3C(F)(F)F)c(F)c3nc(OC[C@@]45CCCN4C[C@H](F)C5)nc(c23)N1C (stereo partly drawn) [Example 22, 3-chloro-5-(4-fluoro-2-(((2R,7aS)-2-fluorotetrahydro-1H-pyrrolizin-7a(5H)-yl)methoxy)-9,10-dimethyl-9,10-dihydro-8H-7-oxa-1,3,6,10-tetraazacyclohepta[de]naphthalen-5-yl)-4-(trifluoromethyl)aniline]	6.8 nM	303 nM
Cc1cc(N)cc(-c2nc3c4c(nc(OC[C@@]56CCCN5C[C@H](F)C6)nc4c2F)N(C)C2(CCO3)CC2)c1C(F)(F)F [Example 53, 3-(4-fluoro-2-(((2R,7aS)-2-fluorotetrahydro-1H-pyrrolizin-7a(5H)-yl)methoxy)-11-methyl-8,9-dihydro-11H-7-oxa-1,3,6,11-tetraazaspiro[cycloocta[de]naphthalene-10,1′-cyclopropan]-1(11a), 2,3a, 3 al(6a), 5-pentaen-5-yl)-5-methyl-4-(trifluoromethyl)aniline]	0.63 nM	26 nM
CN1c2nc(OC[C@@]34CCCN3C[C@H](F)C4)nc3c(F)c(-c4cc(N)cc(Cl)c4C(F)(F)F)nc(c23)OC2CCCC21 (stereo partly drawn) [Example 45, 3-chloro-5-((7a, 10a-trans)-4-fluoro-2-(((2R,7aS)-2-fluorotetrahydro-1H-pyrrolizin-7a(5H)-yl)methoxy)-11-methyl-7a, 8,9,10,10a, 11-hexahydro-7-oxa-1,3,6,11-tetraazanaphtho[1,8-fg]azulen-5-yl)-4-(trifluoromethyl)aniline]	2.7 nM	82 nM
Nc1cc(Cl)c(C(F)(F)F)c(-c2nc3c4c(nc(OC[C@@]56CCCN5C[C@H](F)C6)nc4c2F)N(C2CC2)CCCO3)c1 [Example 4, 3-chloro-5-(11-cyclopropyl-4-fluoro-2-(((2R,7aS)-2-fluorotetrahydro-1H-pyrrolizin-7a(5H)-yl)methoxy)-8,9,10,11-tetrahydro-7-oxa-1,3,6,11-tetraazacycloocta[de]naphthalen-5-yl)-4-(trifluoromethyl)aniline]	8.1 nM	549 nM
CCN1c2nc(OC[C@@]34CCCN3C[C@H](F)C4)nc3c(F)c(-c4cc(N)cc(C)c4C(F)(F)F)nc(c23)OCCC12COC2 [Example 56, 3-(11-ethyl-4-fluoro-2-(((2R,7aS)-2-fluorotetrahydro-1H-pyrrolizin-7a(5H)-yl)methoxy)-8,9-dihydro-11H-7-oxa-1,3,6,11-tetraazaspiro[cycloocta[de]naphthalene-10,3′-oxetan]-1(11a), 2,3a, 3a^1(6a),5-pentaen-5-yl)-5-methyl-4-(trifluoromethyl)aniline]	1.2 nM	33 nM
CN1CC2(COC2)COc2nc(-c3cc(N)cc(Cl)c3C(F)(F)F)c(F)c3nc(OC[C@@]45CCCN4C[C@H](F)C5)nc1c23 [Example 11, 3-chloro-5-(4-fluoro-2-(((2R,7aS)-2-fluorotetrahydro-1H-pyrrolizin-7a(5H)-yl)methoxy)-11-methyl-10,11-dihydro-8H-7-oxa-1,3,6,11-tetraazaspiro[cycloocta[de]naphthalene-9,3′-oxetan]-1(11a), 2,3a, 3 al(6a), 5-pentaen-5-yl)-4-(trifluoromethyl)aniline]	16 nM	624 nM
CN1c2nc(OCC3(C)CCC4COCCN4C3)nc3c(F)c(-c4cc(N)cc(Cl)c4C(F)(F)F)nc(c23)O[C@H]2COCC[C@@H]21 (stereo partly drawn) [Example 60, 3-chloro-5-((7aR,11aS)-4-fluoro-12-methyl-2-((7-methyloctahydropyrido[2,1-c][1,4]oxazin-7-yl)methoxy)-7a, 8,10,11,11a, 12-hexahydro-7,9-dioxa-1,3,6,12-tetraazapleiaden-5-yl)-4-(trifluoromethyl)aniline]	0.63 nM	20 nM
